# Data taken from patent US9006442B2, “Cannabinoid receptor modulators” (Lupin Limited, priority 2011, dated 2015).
# Molecular target: hCB2 (Homo sapiens, UniProt P34972)
# Test: cAMP determination in functional hCB2-CHO stable cells (HTRF)
# Format: cell-based
# Conditions: not given
# Protocol: In-Vitro Assay Method for Determination of cAMP in Functional hCB2—CHO Stable Cells:
# Recombinant CHO-hCB2 cells (procured from Perkin Elmer Inc. USA) were propagated and maintained in Ham's F-12 complete medium containing 10% heat inactivated FBS (Sigma.UK) and 1× penstrep. For assay, 0.1×10^6 to 1.0×10^6 CHO-hCB2 cells were seeded in T-25 flask and grown to mid-log phase in culture media without antibiotics for 2-3 days. […] The test is performed in 96^1/2 area black well plates. For agonist testing, 20 μl cells/well were mixed with 20 μl of sample and 10 μl of forskolin (with final concentration of 10 μM) and incubated for 20 to 40 min at room temperature in incubator. The plate was then processed for the cAMP determination using cAMP Femto-2 HTRF kit (Cisbio, Germany) as per the manual.
# The concentration of compound required to stimulate a half-maximal response (EC50) was determined using the GraphPad Prism software (version 5).
# hCB2, sequence (P34972 whole entry): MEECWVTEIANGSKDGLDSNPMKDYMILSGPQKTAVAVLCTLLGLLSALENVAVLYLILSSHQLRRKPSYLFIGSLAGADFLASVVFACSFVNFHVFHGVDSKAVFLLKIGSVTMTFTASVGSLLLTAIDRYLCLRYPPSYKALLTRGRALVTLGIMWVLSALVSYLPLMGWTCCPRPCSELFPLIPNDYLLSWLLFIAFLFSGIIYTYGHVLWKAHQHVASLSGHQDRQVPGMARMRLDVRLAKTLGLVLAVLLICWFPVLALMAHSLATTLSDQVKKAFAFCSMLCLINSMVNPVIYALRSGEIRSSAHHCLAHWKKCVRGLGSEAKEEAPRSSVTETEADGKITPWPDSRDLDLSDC
row,SMILES,EC50
1,"Cc1cccc2c(Nc3cccc(CF)c3)ncc(C(=O)N3CCOCC3)c12 [Example-12, (1-(((3-Fluoromethyl)phenyl)amino)-5-methylisoquinolin-4-yl)(morpholino)methanone]",10 to 1000 nM
2,"Cc1cccc2c(Nc3cccc(F)c3)ncc(C(=O)N3CCCCC3)c12 [Example-21, (1-((3-Fluorophenyl)amino)-5-methylisoquinolin-4-yl)(piperidino)methanone]",< 10 nM
3,"Cc1cccc2c(Nc3cccc(C(F)(F)F)c3)ncc(C(=O)N3CCCCC3)c12 [Example-23, (5-Methyl-1-(((3-trifluoromethyl)phenyl)amino)isoquinolin-4-yl)(piperidin-1-yl)methanone]",< 10 nM
4,"Cc1cccc2c(Nc3ccc(F)c(C(F)(F)F)c3)ncc(C(=O)N3CCCCC3)c12 [Example-27, (1-((4-Fluoro-3-(trifluoromethyl)phenyl)amino)-5-methylisoquinolin-4-yl)(piperidin-1-yl)methanone]",< 10 nM
5,"Cc1cccc2c(Nc3ccc(F)c(Cl)c3)ncc(C(=O)N3CC4CC(C3)O4)c12 [Example-60, 6-Oxa-3-azabicyclo[3.1.1]heptan-3-yl(1-((3-chloro-4-fluorophenyl)amino)-5-methylisoquinolin-4-yl)methanone]",10 to 1000 nM
6,"Cc1cccc2c(Nc3cccc(Cl)c3F)ncc(C(=O)N3CC4CC(C3)O4)c12 [Example-61, 6-Oxa-3-azabicyclo[3.1.1]heptan-3-yl(1-((3-chloro-2-fluorophenyl)amino)-5-methylisoquinolin-4-yl)methanone]",< 10 nM
7,"Cc1c(Cl)cccc1Nc1ncc(C(=O)N2CC3CC(C2)O3)c2c(C)cccc12 [Example-65, 6-Oxa-3-azabicyclo[3.1.1]heptan-3-yl(1-((3-chloro-2-methylphenyl)amino)-5-methylisoquinolin-4-yl)methanone]",< 10 nM
8,"Cc1cccc2c(Nc3cccc(Cl)c3)ncc(C(=O)N3CC4CC4C3)c12 (stereo not drawn) [Example-75, 3-Azabicyclo[3.1.0]hexan-3-yl(1-((3-chlorophenyl)amino)-5-methylisoquinolin-4-yl)methanone]",< 10 nM
9,"Cc1c(Cl)cccc1Nc1ncc(C(=O)N2CCOCC2)c2c(C)cccc12 [Example-87, (1-((3-Chloro-2-methylphenyl)amino)-5-methylisoquinolin-4-yl)(morpholino)methanone]",< 10 nM
10,"Cc1ccc(Nc2ncc(C(=O)N3CCCCC3)c3c(C)cccc23)cc1Cl [Example-92, (1-((3-Chloro-4-methylphenyl)amino)-5-methylisoquinolin-4-yl)(piperidin-1-yl)methanone]",< 10 nM
11,"Cc1cc(Nc2ncc(C(=O)N3CCCCC3)c3c(C)cccc23)ccc1F [Example-94, (1-((4-Fluoro-3-methylphenyl)amino)-5-methylisoquinolin-4-yl)(piperidin-1-yl)methanone]",< 10 nM
12,"Cc1c(F)cccc1Nc1ncc(C(=O)N2CCCCC2)c2c(C)cccc12 [Example-96, (1-((3-Fluoro-2-methylphenyl)amino)-5-methylisoquinolin-4-yl)(piperidin-1-yl)methanone]",< 10 nM
13,"Cc1cccc2c(Nc3cccc(Cl)c3)ncc(C(=O)N3CCCC3)c12 [Example-102, (1-((3-Chlorophenyl)amino)-5-methylisoquinolin-4-yl)(pyrrolidin-1-yl)methanone]",10 to 1000 nM
14,"O=C(c1cnc(Nc2cccc(Cl)c2)c2cccc(C3CC3)c12)N1CCOCC1 [Example-114, (1-((3-Chlorophenyl)amino)-5-cyclopropylisoquinolin-4-yl)(morpholino)methanone]",< 10 nM
15,"O=C(c1cnc(Nc2cccc(C(F)(F)F)c2)c2cccc(C3CC3)c12)N1CCOCC1 [Example-118, (5-Cyclopropyl-1-((3-(trifluoromethyl)phenyl)amino)isoquinolin-4-yl)(morpholino)methanone]",< 10 nM
16,"CCc1cccc2c(Nc3cccc(Cl)c3F)ncc(C(=O)N3CCCCC3)c12 [Example-128, (1-((3-Chloro-2-fluorophenyl)amino)-5-ethylisoquinolin-4-yl)(piperidin-1-yl)methanone]",< 10 nM
17,"Cc1ccc(Nc2ccc(C(=O)N3CCOCC3)c3c(C)cccc23)cc1F [Example-152, (4-((3-Fluoro-4-methylphenyl)amino)-8-methylnaphthalen-1-yl)(morpholino)methanone]",< 10 nM

# Same assay, conditions: CHO-hCB2 cells, cAMP, forskolin 10 μM, agonist testing; read-out: EC50 Range
row,SMILES,EC50
1,"Cc1cccc2c(Nc3ccc(F)cc3F)ncc(C(=O)N3CCOCC3)c12 [Example-7, (1-((2,4-Difluorophenyl)amino)-5-methylisoquinolin-4-yl)(morpholino)methanone]",10 to 1000 nM
2,"Cc1cccc2c(Nc3cc(F)cc(F)c3)ncc(C(=O)N3CCCCC3)c12 [Example-24, (1-((3,5-Difluorophenyl)amino)-5-methylisoquinolin-4-yl)(piperidin-1-yl)methanone]",< 10 nM
3,"Cc1cccc2c(Nc3cccc(CF)c3)ncc(C(=O)N3CCCCC3)c12 [Example-37, (1-((3-(Fluoromethyl)phenyl)amino)-5-methylisoquinolin-4-yl)(piperidin-1-yl)methanone]",< 10 nM
4,"CCc1cccc2c(Nc3cccc(F)c3F)ncc(C(=O)N3CCCCC3)c12 [Example-124, (1-((2,3-Difluorophenyl)amino)-5-ethylisoquinolin-4-yl)(piperidin-1-yl)methanone]",< 10 nM
5,"CCc1cccc2c(Nc3cccc(Cl)c3C)ncc(C(=O)N3CCCCC3)c12 [Example-131, (1-((3-Chloro-2-methylphenyl)amino)-5-ethylisoquinolin-4-yl)(piperidin-1-yl)methanone]",< 10 nM
6,"COc1cccc(Nc2ccc(C(=O)N3CCCCC3)c3c(C)cccc23)c1 [Example-161, (4-((3-Methoxyphenyl)amino)-8-methylnaphthalen-1-yl)(piperidin-1-yl)methanone]",< 10 nM
7,"Cc1cccc2c(Nc3cccc(F)c3F)ccc(C(=O)N3CC4CC4C3)c12 (stereo not drawn) [Example-166, 3-Azabicyclo[3.1.0]hexan-3-yl(4-((2,3-difluorophenyl)amino)-8-methylnaphthalen-1-yl)methanone]",< 10 nM

# Next, values leading:
row,EC50,SMILES
1,< 10 nM,"Cc1cccc2c(Nc3cc(F)cc(F)c3)ncc(C(=O)N3CCOCC3)c12 [Example-3, (1-((3,5-Difluorophenyl)amino)-5-methylisoquinolin-4-yl)(morpholino)methanone]"
2,10 to 1000 nM,"Cc1cccc2c(Nc3ccc(F)cc3)ncc(C(=O)N3CCOCC3)c12 [Example-5, (1-((4-Fluorophenyl)amino)-5-methylisoquinolin-4-yl)(morpholino)methanone]"
3,< 10 nM,"Cc1cccc2c(Nc3ccc(F)c(C(F)(F)F)c3)ncc(C(=O)N3CCOCC3)c12 [Example-6, (1-((4-Fluoro-3-(trifluoromethyl)phenyl)amino)-5-methylisoquinolin-4-yl)(morpholino)methanone]"
4,< 10 nM,"Cc1cccc2c(Nc3cc(F)c(F)cc3F)ncc(C(=O)N3CCCCC3)c12 [Example-28, (1-((2,4,5-Trifluorophenyl)amino)-5-methylisoquinolin-4-yl)(piperidin-1-yl)methanone]"
5,< 10 nM,"Cc1cccc2c(Nc3ccc(F)cc3F)ncc(C(=O)N3CCCCC3)c12 [Example-29, (1-((2,4-Difluorophenyl)amino)-5-methylisoquinolin-4-yl)(piperidin-1-yl)methanone]"
6,< 10 nM,"Cc1cccc2c(Nc3cccc(F)c3F)ncc(C(=O)N3CCCCC3)c12 [Example-33, (1-((2,3-Difluorophenyl)amino)-5-methylisoquinolin-4-yl)(piperidin-1-yl)methanone]"
7,< 10 nM,"Cc1cccc2c(Nc3cc(F)ccc3F)ncc(C(=O)N3CCCCC3)c12 [Example-34, (1-((2,5-Difluorophenyl)amino)-5-methylisoquinolin-4-yl)(piperidin-1-yl)methanone]"
8,< 10 nM,"Cc1c(F)cccc1Nc1ncc(C(=O)N2CC3CC3C2)c2c(C)cccc12 (stereo not drawn) [Example-77, 3-Azabicyclo[3.1.0]hexan-3-yl(1-((3-fluoro-2-methylphenyl)amino)-5-methylisoquinolin-4-yl)methanone]"
9,< 10 nM,"Cc1cc(Nc2ncc(C(=O)N3CCOCC3)c3c(C)cccc23)ccc1F [Example-85, (1-((4-Fluoro-3-methylphenyl)amino)-5-methylisoquinolin-4-yl)(morpholino)methanone]"
10,< 10 nM,"Cc1ccc(Cl)cc1Nc1ncc(C(=O)N2CCOCC2)c2c(C)cccc12 [Example-88, (1-((5-Chloro-2-methylphenyl)amino)-5-methylisoquinolin-4-yl)(morpholino)methanone]"
11,< 10 nM,"Cc1cccc2c(Nc3ccc(Cl)cc3Cl)ncc(C(=O)N3CCOCC3)c12 [Example-90, (1-((2,4-Dichlorophenyl)amino)-5-methylisoquinolin-4-yl)(morpholino)methanone]"
12,< 10 nM,O=C(c1cnc(Nc2cccc(F)c2F)c2cccc(C3CC3)c12)N1CCOCC1 [Example-116]
13,< 10 nM,"O=C(c1cnc(Nc2cccc(C(F)(F)F)c2F)c2cccc(C3CC3)c12)N1CCOCC1 [Example-119, (5-Cyclopropyl-1-((2-fluoro-3-(trifluoromethyl)phenyl)amino)isoquinolin-4-yl)(morpholino)methanone]"
14,< 10 nM,"CCc1cccc2c(Nc3cccc(C(F)(F)F)c3F)ncc(C(=O)N3CCCCC3)c12 [Example-129, (5-Ethyl-1-((2-Fluoro-3-(trifluoromethyl)phenyl)amino)isoquinolin-4-yl)(piperidin-1-yl)methanone]"
15,< 10 nM,"Cc1cccc(Nc2ccc(C(=O)N3CCOCC3)c3c(C)cccc23)c1 [Example-150, (8-Methyl-4-(m-tolylamino)naphthalen-1-yl)(morpholino)methanone]"
